For 23 molecules, EC50 results are on record in PubChem BioAssay AID434930 (Broad Institute, 2010).

Records with an inconclusive call do not appear. The source made the active and inactive calls.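 How the source made its calls: active means fitted EC50 no higher than ten times the highest tested concentration; inconclusive means flat fit with 30 to 70% inhibition, or poor fit; inactive means EC50 beyond ten times the top tested dose.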

The subject of the experiment is C. albicans CaCi-2 + fluconazole, Alamar Blue growth, 48 h. The experiment in a line: fluconazole-resistant Candida growth suppression, fluconazole present – C. albicans CaCi-2 (fluconazole-resistant clinical isolate), fluorescence, retest, dose response (AID 434930).
As usually defined, the EC50 is the concentration at which the effect is half-maximal. `COc1ccc(-c2nnc(NC(=O)c3ccc(F)cc3)o2)cc1`: the EC50 is 489 nM.

For `O=C(Nc1nnc(CCc2ccccc2)s1)c1ccco1`, the half-maximal effective concentration (EC50) is 3080 nM.

In the case of `O=C(Oc1c(Cl)cc(Cl)c2cccnc12)c1cccs1`, the EC50 was 280 nM.

On to `Cc1ccc(C(=O)c2coc3c2C(=O)C(=O)c2ccccc2-3)cc1`, for which the EC50 was 2890 nM.

Regarding `CCCC(=O)NC(c1ccccc1)c1ccc2cccnc2c1O` (stereo not drawn), the EC50 is 577 nM.

Turning to `Cc1ccc(C(=O)Nc2cccc(-c3cn4ccccc4n3)c2)cc1`, the EC50 was 6790 nM.

`COc1ccc(-n2nc(C(=O)NCC(=O)N3CCN(c4ccccc4)CC3)c3ccccc3c2=O)c(OC)c1`: the EC50 was 7170 nM.

For `CC(C)N1CCc2c(sc(NC(=O)c3nc4ccccc4s3)c2C(N)=O)C1`, the half-maximal effective concentration (EC50) was 1190 nM.

Consider `O=C(NNC1=C(C(=O)C(F)(F)F)CCC1)c1ccc(Cl)cc1`, for which the EC50 was 18800 nM.

For `O=C(Nc1sc2c(c1C(=O)c1ccc(Cl)cc1)CCCC2)c1cccnc1`, the EC50 is 1830 nM.

Turning to `CCOC(=O)N1C(=O)C2(CCCCC2)N(c2ccc(C)cc2)C1=S`, the half-maximal effective concentration (EC50) is less than 100 nM.

As for `O=C(Nc1nc(-c2ccccn2)cs1)c1ccc(Br)s1`, the EC50 was 11100 nM.

Turning to `O=C(Nc1nnc(-c2ccc3c(c2)CCCC3)o1)c1ccc(Cl)cc1Cl`, the EC50 is 321 nM.

Turning to `Clc1ccc2c(c1)C(c1cccs1)=NNC(c1cccnc1)=N2`, the EC50 is 77.8 nM.

Regarding `CC(C)COCc1ccc(O)c2ncccc12`, the EC50 is 16500 nM.

As to `COc1cc2c(cc1NC(=O)c1ccco1)CCCC2`, the EC50 is 103 nM.

Regarding `CCCC(=O)NC(c1ccc(Cl)cc1)c1ccc2cccnc2c1O` (stereo not drawn), the EC50 is 486 nM.

In the case of `Cc1ccc(/C=C/C(=O)c2ccccc(=O)c2O)cc1C`, the EC50 was > 26000 nM (inactive).

With `Cc1oc2c(F)c(F)c(F)c(F)c2c1S(=O)(=O)Nc1cccc(C(F)(F)F)c1`, the 50% effective concentration (EC50) is 10800 nM.

As to `Cc1nc2ccccc2cc1OCc1ccc(F)cc1`, the EC50 was 8450 nM.

For `O=C(Nc1nnc(-c2ccco2)o1)c1ccc(Cl)cc1`, the EC50 was 1280 nM.

Take `O=c1c2cc(Br)ccc2nc(-c2cccc(C(F)(F)F)c2)n1O`: the EC50 was 4160 nM.

For the molecule `Nc1nccnc1C(=O)Nc1nnc(SCc2ccc(Cl)cc2)s1`, the EC50 is 2110 nM.
